# According to PMC12147205, “Soybean Lectin Cross-Links Membranes by Binding Sulfatide in a Curvature-Dependent Manner” (Journal of Agricultural and Food Chemistry, 2025):
# Several values for one entry are separate records, joined by “and”; a condition that tells them apart may be missing. Equal values may be shown once. Entries after “also recorded” stand apart in the source; their conditions may differ.
# B1: BBTI: Birk and Bowman trypsin inhibitor isolated from soybean meal (protein)
# chain: DDESSKPCCDQCACTKSNPPQCRCSDMRLNSCHSACKSCICALSYPAQCFCVDITDFCYEPCKPSEDDKEN
# modifications: Native protein purified from soybean meal, probably a mixture of Bowman-Birk isoforms
# B2: KTI: Kunitz trypsin inhibitor isolated from soybean meal (protein)
# chain: DFVLDNEGNPLENGGTYYILSDITAFGGIRAAPTGNERCPLTVVQSRNELDKGIGTIISSPYRIRFIAEGHPLSLKFDSFAVIMLCVGIPTEWSVVEDLPEGPAVKIGENKDAMDGWFRLERVSDDEFNNYKLVFCPQQAEDDKCGDIGISIDHDDGTRRLVVSKNKPLVVQFQKLDKESL
# modifications: Native protein purified from soybean meal
# Tests used:
# soybean lectin [1] = target: T1, soybean lectin (Glycine max, UniProt P05046); assay: Isothermal titration calorimetry of GalNAc and analogs binding to soybean lectin; conditions: for KD / Kd: 50 mM HEPES, 20 mM CaCl2 pH 7, one set of sites model, N fixed to 4, NB = no binding detected (KD over 1–2 mM)
# T1 construct: from tissue; host or cells: soybean meal (Glycine max seed meal)
# T1 sequence (P05046 33-285): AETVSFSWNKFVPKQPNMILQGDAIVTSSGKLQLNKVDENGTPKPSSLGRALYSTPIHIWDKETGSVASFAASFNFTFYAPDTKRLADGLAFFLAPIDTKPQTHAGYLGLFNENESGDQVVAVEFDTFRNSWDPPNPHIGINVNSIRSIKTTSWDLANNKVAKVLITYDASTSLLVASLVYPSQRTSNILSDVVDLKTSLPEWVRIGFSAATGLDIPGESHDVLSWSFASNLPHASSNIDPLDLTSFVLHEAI
# Procedure: Isothermal titration calorimetry (ITC) measurements were performed in a buffer containing 50 mM HEPES and 20 mM CaCl2 (pH 7). […] Each experiment was carried out in duplicate.
# soybean lectin [2] = target: T1, soybean lectin; assay: Lectin-mediated cross-linking of sulfatide-containing GUVs, confocal microscopy; conditions: 7.5 μM lectin; GalNAc at 200 times the lectin concentration
# Procedure: Giant unilamellar vesicles (GUVs) were generated as described by Horger et al. Briefly, an agarose solution was prepared by dissolving 4 g of agarose in 100 mL of Milli-Q water. The solution was poured onto one side of a glass slide and allowed to dry. The glass slide was then placed on a hot plate set to 38 °C. A 30 μL stock solution of lipids (3.75 mg/mL) was prepared in a chloroform–methanol mixture, containing 10% sulfatides, 30% DOPC, 30% cholesterol, 28% DOPE, and 2% DOPE-F (GUV-containing sulfatide) or 33.3% DOPC, 33.3% cholesterol, 31.3% DOPE, and 2% DOPE-F (GUV-sulfatide free). This lipid mixture was spread over the agarose layer on the heated glass slide using another glass slide. The slide remained on the hot plate for a few minutes until the solvent evaporated. To remove residual solvent, the glass slide containing the agarose and lipid film was placed in a vacuum chamber for 20 min. GUVs were then generated by placing the prepared glass slide in a Petri dish and covering it with phosphate buffer saline. The GUV-lectin suspension was prepared with a final lectin concentration of 7.5 μM. […] Confocal microscopy was performed using a Nikon AXR point-scanning confocal system built around an inverted Ti2 Eclipse microscope. […] In some cases, a gamma adjustment of 0.9 was applied to enhance fluorescence localization differences within individual vesicles. […]
# soybean lectin [3] = target: T1, soybean lectin; assay: SPR of lectin binding to sulfatide liposomes immobilized on L1 sensor chip; conditions: 0.4 μm liposomes, 10% sulfatide/90% DOPC; two-state reaction model; absence of GalNAc; read-out: KD (apparent), lectin to sulfatide liposomes
# Procedure: SPR data were collected using a BIAcore X100 instrument equipped with an L1 sensor chip (Cytiva) coated with 0.4 μm liposomes at room temperature. Liposomes contained 10% sulfatide and 90% DOPC, whereas liposomes without sulfatide were composed of 100% DOPC. All experiments were performed using a buffer consisting of 50 mM HEPES and 140 mM NaCl (pH 7.4). Pretreatment of the sensor chip was performed with 40 mM octyl β-D-glucopyranoside. Liposomes were immobilized onto the L1 sensor chip at a flow rate of 30 μL/min, achieving a typical loading of ∼5500 response units per sensor chip channel. Lectin was used as the analyte across the specified concentration range. […] Data were best fitted using a two-state reaction model, and the apparent K D values were estimated using BIAevaluation software, version 2.0 (Cytiva).
# porcine trypsin = porcine trypsin (Sus scrofa, UniProt P00761); assay: Binding of soybean meal trypsin inhibitors to porcine trypsin (Table S2)
# porcine trypsin, sequence (P00761 9-231): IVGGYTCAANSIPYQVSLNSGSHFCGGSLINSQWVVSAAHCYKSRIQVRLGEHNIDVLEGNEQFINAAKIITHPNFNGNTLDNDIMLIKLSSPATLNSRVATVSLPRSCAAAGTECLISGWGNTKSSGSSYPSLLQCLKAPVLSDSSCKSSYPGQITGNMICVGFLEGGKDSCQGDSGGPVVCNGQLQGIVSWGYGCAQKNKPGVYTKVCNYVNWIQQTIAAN
# [4] = ITC competition, lectin preincubated with sulfatide liposomes (10% sulfatide/90% DOPC)
# [5] = ITC competition, lectin preincubated with sulfatide-free liposomes (100% DOPC)
# [6] = TI from soybean meal line 17Ti-0204
# [7] = TI from soybean meal line 17Ti-0242
# [8] = TI from soybean meal line 17Ti-0332
# [9] = TI from soybean meal line 17Ti-0534
# [10] = TI from soybean meal line Glenn
molecule,measurement,setting,value
"CC(=O)N[C@H]1[C@H]([C@H](O)[C@H](O)CO)O[C@@](OC[C@H]2O[C@@H](O[C@H]3[C@H](O)[C@@H](O)[C@H](O)O[C@@H]3CO)[C@H](O)[C@@H](O)[C@H]2O)(C(=O)O)C[C@@H]1O [6-SL, 6′-Sialyl lactose]",KD,"soybean lectin [1]; ITC, 25 °C",no detectable binding
same,Kd,"soybean lectin [1]; ITC, 25 °C, read-out: KD",> 1000 µM
"O=[N+]([O-])c1ccc(O[C@H]2O[C@H](CO)[C@@H](O)[C@H](O)[C@@H]2O)c(Cl)c1 [CNMP, 2-chloro-4-nitrophenyl-α-D-mannopyranoside]",KD,"soybean lectin [1]; ITC, 25 °C",no detectable binding
same,Kd,"soybean lectin [1]; ITC, 25 °C, read-out: KD",> 1000 µM
"CC(=O)N[C@@H]1[C@@H](O)[C@@H](O)[C@@H](CO)O[C@H]1O [GalNAc, N-acetyl-D-galactosamine]",ΔG,soybean lectin [1]; [4],–5.6 ± 0 kcal/mol
same,ΔH,soybean lectin [1]; [4],–9.9 ± 0.2 kcal/mol
same,–TΔS,soybean lectin [1]; [4],4.3 ± 0.2 kcal/mol
same,ΔG,soybean lectin [1]; [5],–5.6 ± 0 kcal/mol
same,ΔH,soybean lectin [1]; [5],–9.9 ± 0.2 kcal/mol
same,–TΔS,soybean lectin [1]; [5],4.3 ± 0.2 kcal/mol
same,ΔG,"soybean lectin [1]; ITC, 25 °C, pH 7",–5.8 ± 0 kcal/mol
same,–TΔS,"soybean lectin [1]; ITC, 25 °C, pH 7",4.5 kcal/mol and 4.5 ± 0.1 kcal/mol
same,effect on soybean lectin-mediated cross-linking of sulfatide-containing GUVs,soybean lectin [2],inhibited; also recorded: reduced
"CO[C@H]1O[C@H](CO)[C@H](O)[C@H](O)[C@H]1NC(C)=O [MGalNAc, Methyl-N-acetyl-2-deoxy-α-D-galactosamine]",Kd,"soybean lectin [1]; ITC, 25 °C, read-out: KD",73 µM and 73.1 µM
same,ΔG,"soybean lectin [1]; ITC, 25 °C, pH 7",–5.7 ± 0 kcal/mol
same,ΔH,"soybean lectin [1]; ITC, 25 °C, pH 7",–10.7 ± 0.1 kcal/mol
same,–TΔS,"soybean lectin [1]; ITC, 25 °C, pH 7",5.0 ± 0.1 kcal/mol
"O=[N+]([O-])c1ccccc1OC1OC(CO)C(O)C(O)C1O [NPGP, 2-Nitrophenyl-β-D-galactopyranoside]",weaker affinity relative to GalNAc,soybean lectin [1]; ITC,~10 fold
same,ΔG,"soybean lectin [1]; ITC, 25 °C, pH 7",–4.3 ± 0 kcal/mol
same,ΔH,"soybean lectin [1]; ITC, 25 °C, pH 7",–9.8 ± 0.4 kcal/mol
same,–TΔS,"soybean lectin [1]; ITC, 25 °C, pH 7",5.5 ± 0.3 kcal/mol
same,Kd,"soybean lectin [1]; KD, ITC, 25 °C",789.5 ± 0.7 µM
"O=[N+]([O-])c1ccc(O[C@H]2O[C@H](CO)[C@@H](O)[C@H](O)[C@@H]2O)cc1 [NPMP, 4-nitrophenyl-α-D-mannopyranoside]",KD,"soybean lectin [1]; ITC, 25 °C",no detectable binding
same,Kd,"soybean lectin [1]; ITC, 25 °C, read-out: KD",> 1000 µM
"CCCCCCCCO[C@H]1O[C@H](CO)[C@@H](O)[C@H](O)[C@@H]1O [OMP, Octyl-α-D-mannopyranoside]",KD,"soybean lectin [1]; ITC, 25 °C",no detectable binding
same,Kd,"soybean lectin [1]; ITC, 25 °C, read-out: KD",> 1000 µM
sulfatide,Kd,soybean lectin [3],0.264 ± 0.062 µM
B1,Kd,porcine trypsin; [6],0.1 µM
same,Kd,porcine trypsin; [7],0.1 ± 0.1 µM
same,Kd,porcine trypsin; [8],0.2 µM
same,Kd,porcine trypsin; [9],0.1 µM
same,Kd,porcine trypsin; [10],0.1 µM
B2,Kd,porcine trypsin; [6],9 ± 2 µM
same,Kd,porcine trypsin; [7],2.4 ± 0.3 µM
same,Kd,porcine trypsin; [8],1.2 ± 0.1 µM
same,Kd,porcine trypsin; [9],2.4 ± 0.1 µM
same,Kd,porcine trypsin; [10],1.1 ± 0.4 µM
